Experimental data: patent publication US8859599B2, “Androgen receptor modulating compounds, preparation and uses thereof” (priority 2009, dated 2014)

Legend:
LNCaP-AR cells = assay: TUNEL assay of apoptotic cells in LNCaP-AR; format: cell-based, human; settings: 20.0 μM; for Apoptotic cells (%): LNCaP-AR, 144-h exposure, TUNEL
LNCaP cells [1] = assay: TUNEL assay of apoptotic cells in LNCaP; format: cell-based, human; settings: 144-h exposure, 20.0 μM
Method: Cells were fixed in 1% paraformaldehyde in PBS on ice for 15 min, suspended in ice cold ethanol (70%) and stored overnight at −20° C. Cells were then washed twice in PBS and resuspended in PBS containing 0.1% Triton X-100 for 5 min at 4° C. Thereafter, samples were incubated in 50 μl of solution containing TdT and FITC-conjugated dUTP deoxynucleotides 1:1 (Roche Diagnostic GmbH, Mannheim, Germany) in a humidified atmosphere for 90 min at 37° C. in the dark, washed in PBS, counterstained with propidium iodide (2.5 μg/ml, MP Biomedicals, Verona, Italy) and RNAse (10 Kunits/ml, Sigma Aldrich, Milan, Italy) for 30 min at 4° C. in the dark and analyzed by flow cytometry.
After the end of drug exposures, medium was removed and cells were detached from the flasks by trypsin treatment, washed twice with PBS and stained according to the different methods specified below. Flow cytometric analysis was performed using a FACS Canto flow cytometer (Becton Dickinson, San Diego, Calif.). Data acquisition and analysis were performed using FACSDiva software (Becton Dickinson). Samples were run in triplicate and 10,000 events were collected for each replica. Data were the average of three experiments, with errors under 5%.
The cells, before TUNEL assay, were continuously exposed to the anti-androgen compounds for 144 hours at the concentration of 20.0 μM.

HepG2 cells = assay: Cytotoxic activity on hepatoblastoma cell line HepG2; format: cell-based, human; settings: up to highest concentration tested
Method: (§1) Finally, compounds were also tested on HepG2 cells, originally isolated from a primary hepatoblastoma of a child, purchased from ATCC.
(§2) Sulforhodamine B (SRB) assay was used according to the method by Skehan et al. (JNCI, 1990). Briefly, cells were collected by trypsinization, counted and plated at a density of 5,000 cells/well in 96-well flat-bottomed microtiter plates (100 μl of cell suspension/well). In the chemosensitivity assay, experiments were run in octuplicate, and each experiment was repeated three times. The optical density (OD) of cells was determined at a wavelength of 490 nm by a colorimetric plate reader.
(§3) Growth inhibition and cytocidal effect of drugs were calculated according to the formula reported by Monks et al. (JNCI, 1991): [(ODtreated−ODzero)/(ODcontrol−ODzero)]×100%, when ODtreated is > to ODzero. If ODtreated is above ODzero, treatment has induced a cytostatic effect, whereas if ODtreated is below ODzero, cell killing has occurred. The ODzero depicts the cell number at the moment of drug addition, the ODcontrol reflects the cell number in untreated wells and the ODtreated reflects the cell number in treated wells on the day of the assay. TUNEL Assay
(§4) The authors evaluated in vitro the potential hepato-toxicity of some of the novel compounds on HepG2 cell line, a human hepatoblastoma cell line that retains the specialized function of normal hepatocytes [Knowles B B, et al., Science 1980, 209:497-499; Aden D P, et al., Nature, 1979, 282:615-616].

[2] = as above; format: cell-based, human; settings: human, HepG2 cells
Method: as §1, §2, §3, §4

LNCaP cells [3] = assay: Sulforhodamine B (SRB) in vitro chemosensitivity assay on LNCaP cells; format: cell-based; settings: for GI50 / LC50: Homo sapiens, LNCaP, 144 h; for GI50: read-out: Growth inhibition (GI50), LNCaP cells, 144 h exposure; for LC50: read-out: cytocidal effects by 50% (LC50), LNCaP cells, 144 h exposure, n.r. = not reached; for cytocidal (cell killing) activity: LNCaP cells, 144 h exposure
Method: as §2, §3
The authors examined the antitumour activity of the compounds for which the synthesis is described above, in the hormone-sensitive prostate cancer cell line LNCaP. (R)-Bicalutamide and the novel compounds were tested at the increasing concentrations of […]. The highest dose used was chosen on the basis of the clinically achievable peak plasma concentration reported in the literature for bicalutamide (Cockshott I D. Clin Pharmacokinet. 2004; 43 (13) 855-78).
After 144-hr exposure time, the cytotoxic effect of the molecules was calculated according to the method of Monks et al. (Monks A, et al., J. Nat. Cancer Inst. 1991; 83: 757-66).

[4] = tested on: normal stem cells derived from human peripheral blood stem cells; assay: Colony-forming cell assay (GM-CFU); format: cell-based; settings: highest concentration tested, 14 days incubation
Method: The colony-forming cell assay was used as previously described [Motta M R et al., Exp Hematol 1997; 25:1261-1269]. In brief, for each molecule, 5×10^4 cells were plated in duplicate in a complete culture medium (MethoCult H4434, StemCell Technologies, Vancouver, Canada) containing different concentrations (0.2, 2, and 20 μmol/l) of the compound. After 14 days of incubation in a humidified atmosphere of 5% CO2 at the temperature of 37° C., granulocyte macrophage colony-forming unit (GM-CFU) aggregates of more than 50 cells were counted. Control cells were incubated under the same conditions but in drug-free medium.
The authors also evaluated the potential toxicity of some of the novel compounds in normal cells as the ability of the drugs to inhibit clonogenic growth of normal stem cells derived from human peripheral blood stem cells (FIG. 37). The exposure of hematopoietic precursor to the compounds, caused low ((S)-37) or negligible (, (R)-22, (R)-23, (R)-10) toxicity at the highest concentration tested.

DU145 = assay: SRB cytotoxicity on DU145 cells; format: cell-based, human; settings: DU145 cells (no AR), 144 h exposure
Method: as §1, §2, §3
(§5) The authors tested the antitumour activity of the compounds also on PC-3 and DU145 cancer cell lines, representative of hormone-refractory prostate cancer due to AR receptor absence.

PC-3 = assay: SRB cytotoxicity on PC-3 cells; format: cell-based, human; settings: PC-3 cells (no AR), 144 h exposure
Method: as §1, §2, §3, §5

Compound	Apoptotic cells (%) (LNCaP-AR cells)	Apoptotic cells (%) (LNCaP cells [1])	potential hepato-toxicity (HepG2 cells)	GI50 [2] [µM]	LC50 (concentration killing 50% of cells) [2] [µM]	GI50 (LNCaP cells [3]) [µM]	LC50 (LNCaP cells [3]) [µM]	cytocidal (cell killing) activity (LNCaP cells [3])	toxicity: inhibition of clonogenic growth of hematopoietic precursors [4]	cytotoxic properties compared to effects on LNCaP and LNCaP-AR cells (DU145)	cytotoxic properties compared to effects on LNCaP and LNCaP-AR cells (PC-3)	apoptosis induction in the LNCaP derivative cell line versus LNCaP (LNCaP-AR cells; 144 h)
N#Cc1ccc(N2C(=O)[C@](Cc3ccc(F)cc3)(c3ccccc3)NC2=S)cc1C(F)(F)F [(S)-37]	89.5	93.4	significant toxicity	7.4	17.7	5.8	16.8	cytocidal activity	low	significant reduction in their cytotoxic proprieties	significant reduction in their cytotoxic proprieties	–
CS(=O)(=O)N[C@@](Cc1ccccc1)(CS(=O)(=O)c1ccc(F)cc1)C(=O)Nc1ccc(C#N)c(C(F)(F)F)c1 [(R)-10, (R)-2-benzyl-N-(4-cyano-3-(trifluoromethyl)phenyl)-3-(4-fluorophenylsulfonyl)-2-(methylsulfonamido)propanamide]	42.7	35.5	negligible toxicity	–	–	7.4	17.7	cytocidal activity	negligible	significant reduction in their cytotoxic proprieties	significant reduction in their cytotoxic proprieties	more active
